Measurements taken from EP2970215B1, “PYRROLIDINE DERIVATIVES, PHARMACEUTICAL COMPOSITIONS CONTAINING THEM, AND THEIR USE IN THERAPY” (AbbVie Deutschland GmbH & Co. KG, priority 2013, dated 2014).

molecular target: T1, human GlyT1c transporter (Homo sapiens, UniProt P48067); test: Radioligand binding assay using recombinant CHO cell membranes expressing human GlyT1; conditions: radioligand binding to human GlyT1c transporter-expressing membranes
T1 construct: expressed in transfected cells; host or cells: CHO cells (recombinant; line hGlyT1c_5_CHO is named for the uptake assay)
T1 sequence (P48067 1-706): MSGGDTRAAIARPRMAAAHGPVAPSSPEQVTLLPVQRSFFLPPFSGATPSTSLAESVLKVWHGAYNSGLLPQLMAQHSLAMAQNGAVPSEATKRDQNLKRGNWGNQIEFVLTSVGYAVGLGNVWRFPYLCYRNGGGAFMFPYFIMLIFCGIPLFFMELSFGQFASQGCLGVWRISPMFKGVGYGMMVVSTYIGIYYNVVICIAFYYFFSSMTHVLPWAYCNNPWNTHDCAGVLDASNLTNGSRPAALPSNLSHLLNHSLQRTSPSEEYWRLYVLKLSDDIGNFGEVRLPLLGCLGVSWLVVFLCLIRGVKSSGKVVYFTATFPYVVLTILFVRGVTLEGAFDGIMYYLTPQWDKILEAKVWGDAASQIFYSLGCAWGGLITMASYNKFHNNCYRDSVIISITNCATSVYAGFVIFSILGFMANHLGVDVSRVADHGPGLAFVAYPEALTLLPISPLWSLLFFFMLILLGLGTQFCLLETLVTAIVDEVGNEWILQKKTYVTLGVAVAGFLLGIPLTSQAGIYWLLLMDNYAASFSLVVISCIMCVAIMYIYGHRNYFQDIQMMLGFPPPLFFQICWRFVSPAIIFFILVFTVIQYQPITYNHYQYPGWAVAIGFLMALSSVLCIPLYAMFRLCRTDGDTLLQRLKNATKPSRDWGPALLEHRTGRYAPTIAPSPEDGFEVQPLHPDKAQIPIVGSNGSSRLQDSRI
Text: 2. Radioligand binding assays using recombinant CHO cell membranes expressing human GlyT1: […]

Compound	Ki [µM]
CS(=O)(=O)N1C[C@@H](NC(=O)c2cccc(C(F)(F)F)c2Cl)[C@H](c2cc(F)c(F)cc2F)C1 (relative stereo) [Example 4, 2-chloro-N-[trans-1-(methylsulfonyl)-4-(2,4,5-trifluorophenyl)pyrrolidin-3-yl]-3-(trifluoromethyl)benzamide]	≥ 10
Cn1cnc(S(=O)(=O)N2C[C@@H](NC(=O)c3cccc(C(F)(F)F)c3Cl)[C@H](c3ccc(Cl)cc3)C2)c1 (relative stereo) [Example 13, 2-chloro-N-{trans-4-(4-chlorophenyl)-1-[(1-methyl-1H-imidazol-4-yl)sulfonyl]pyrrolidin-3-yl}-3-(trifluoromethyl)benzamide]	≤ 1
Cn1cnc(S(=O)(=O)N2C[C@@H](Nc3ccccc3)[C@H](c3ccccc3)C2)c1 (relative stereo) [Example 29, trans-1-[(1-methyl-1H-imidazol-4-yl)sulfonyl]-N,4-diphenylpyrrolidin-3-amine]	≤ 1
Cn1cnc(S(=O)(=O)N2C[C@@H](NC(=O)c3cc(Cl)cc(Cl)c3)[C@H](c3ccccc3)C2)c1 (relative stereo) [Example 30, 3,5-dichloro-N-{trans-1-[(1-methyl-1H-imidazol-4-yl)sulfonyl]-4-phenylpyrrolidin-3-yl}benzamide]	≤ 10
Cn1cnc(S(=O)(=O)N2C[C@@H](NC(=O)c3ccccc3C#N)[C@H](c3ccccc3)C2)c1 (relative stereo) [Example 32, 2-cyano-N-{trans-1-[(1-methyl-1H-imidazol-4-yl)sulfonyl]-4-phenylpyrrolidin-3-yl} benzamide]	≤ 10
Cn1cnc(S(=O)(=O)N2C[C@@H](NC(=O)c3cccc(C#N)c3)[C@H](c3ccccc3)C2)c1 (relative stereo) [Example 33, 3-cyano-N-{trans-1-[(1-methyl-1H-imidazol-4-yl)sulfonyl]-4-phenylpyrrolidin-3-yl}benzamide]	≤ 10
Cn1cnc(S(=O)(=O)N2C[C@@H](NC(=O)c3ccc(C#N)cc3)[C@H](c3ccccc3)C2)c1 (relative stereo) [Example 34, 4-cyano-N-{trans-1-[(1-methyl-1H-imidazol-4-yl)sulfonyl]-4-phenylpyrrolidin-3-yl} benzamide]	≤ 10
Cn1cnc(S(=O)(=O)N2C[C@@H](NC(=O)c3ccccc3C(F)(F)F)[C@H](c3ccccc3)C2)c1 (relative stereo) [Example 35, N-{trans-1-[(1-methyl-1H-imidazol-4-yl)sulfonyl]-4-phenylpyrrolidin-3-yl}-2-(trifluoromethyl)benzamide]	≤ 10
Cn1cnc(S(=O)(=O)N2C[C@@H](NC(=O)c3cccc(C(F)(F)F)c3)[C@H](c3ccccc3)C2)c1 (relative stereo) [Example 36, N-{trans-1-[(1-methyl-1H-imidazol-4-yl)sulfonyl]-4-phenylpyrrolidin-3-yl}-3-(trifluoromethyl)benzamide]	≤ 1
Cn1cc(S(=O)(=O)N2C[C@@H](NC(=O)c3cccc(C(F)(F)F)c3Cl)[C@H](c3ccccc3)C2)c(C(F)(F)F)n1 (relative stereo) [Example 38, 2-chloro-N-[trans-1-{[1-methyl-3-(trifluoromethyl)-1H-pyrazol-4-yl]sulfonyl}-4-phenylpyrrolidin-3-yl]-3-(trifluoromethyl)benzamide]	≤ 10
Cc1nn(C(F)F)c(C)c1S(=O)(=O)N1C[C@@H](NC(=O)c2cccc(C(F)(F)F)c2Cl)[C@H](c2ccccc2)C1 (relative stereo) [Example 39, 2-chloro-N-[trans-1-{[1-(difluoromethyl)-3,5-dimethyl-1H-pyrazol-4-yl]sulfonyl}-4-phenylpyrrolidin-3-yl]-3-(trifluoromethyl)benzamide]	≤ 10

Continued, values first:

Ki [µM]	Compound
≤ 0.1	Cn1cnc(S(=O)(=O)N2C[C@@H](NC(=O)c3cccc(C(F)(F)F)c3Cl)[C@H](c3ccc(F)cc3)C2)c1 (relative stereo) [Example 3, 2-chloro-N-{trans-4-(4-fluorophenyl)-1-[(1-methyl-1H-imidazol-4-yl)sulfonyl]pyrrolidin-3-yl}-3-(trifluoromethyl)benzamide]
≤ 1	Cn1cnc(S(=O)(=O)N2C[C@@H](NC(=O)c3ccccc3Cl)[C@H](c3ccccc3)C2)c1 (relative stereo) [Example 14, 2-chloro-N-{trans-1-[(1-methyl-1H-imidazol-4-yl)sulfonyl]-4-phenylpyrrolidin-3-yl}benzamide]
≤ 10	Cn1cnc(S(=O)(=O)N2C[C@@H](NC(=O)c3cccc(Cl)c3)[C@H](c3ccccc3)C2)c1 (relative stereo) [Example 15, 3-chloro-N-{trans-1-[(1-methyl-1H-imidazol-4-yl)sulfonyl]-4-phenylpyrrolidin-3-yl}benzamide]
≤ 1	Cn1cnc(S(=O)(=O)N2C[C@@H](NC(=O)c3ccc(Cl)cc3)[C@H](c3ccccc3)C2)c1 (relative stereo) [Example 16, 4-chloro-N-{trans-1-[(1-methyl-1H-imidazol-4-yl)sulfonyl]-4-phenylpyrrolidin-3-yl}benzamide]
≤ 10	Cn1cnc(S(=O)(=O)N2C[C@@H](NC(=O)c3ccccc3F)[C@H](c3ccccc3)C2)c1 (relative stereo) [Example 17, 2-fluoro-N-{trans-1-[(1-methyl-1H-imidazol-4-yl)sulfonyl]-4-phenylpyrrolidin-3-yl}benzamide]
≤ 10	Cn1cnc(S(=O)(=O)N2C[C@@H](NC(=O)c3cccc(F)c3)[C@H](c3ccccc3)C2)c1 (relative stereo) [Example 18, 3-fluoro-N-{trans-1-[(1-methyl-1H-imidazol-4-yl)sulfonyl]-4-phenylpyrrolidin-3-yl}benzamide]
≤ 10	Cn1cnc(S(=O)(=O)N2C[C@@H](NC(=O)c3ccc(F)cc3)[C@H](c3ccccc3)C2)c1 (relative stereo) [Example 19, 4-fluoro-N-{trans-1-[(1-methyl-1H-imidazol-4-yl)sulfonyl]-4-phenylpyrrolidin-3-yl}benzamide]
≤ 10	COc1ccccc1C(=O)N[C@@H]1CN(S(=O)(=O)c2cn(C)cn2)C[C@H]1c1ccccc1 (relative stereo) [Example 20, 2-methoxy-N-{trans-1-[(1-methyl-1H-imidazol-4-yl)sulfonyl]-4-phenylpyrrolidin-3-yl}benzamide]
≤ 10	COc1cccc(C(=O)N[C@@H]2CN(S(=O)(=O)c3cn(C)cn3)C[C@H]2c2ccccc2)c1 (relative stereo) [Example 21, 3-methoxy-N-{trans-1-[(1-methyl-1H-imidazol-4-yl)sulfonyl]-4-phenylpyrrolidin-3-yl}benzamide]
≤ 10	Cc1ccccc1C(=O)N[C@@H]1CN(S(=O)(=O)c2cn(C)cn2)C[C@H]1c1ccccc1 (relative stereo) [Example 22, 2-methyl-N-{trans-1-[(1-methyl-1H-imidazol-4-yl)sulfonyl]-4-phenylpyrrolidin-3-yl}benzamide]
≤ 10	Cc1cccc(C(=O)N[C@@H]2CN(S(=O)(=O)c3cn(C)cn3)C[C@H]2c2ccccc2)c1 (relative stereo) [Example 23, 3-methyl-N-{trans-1-[(1-methyl-1H-imidazol-4-yl)sulfonyl]-4-phenylpyrrolidin-3-yl}benzamide]
≤ 10	Cc1ccc(C(=O)N[C@@H]2CN(S(=O)(=O)c3cn(C)cn3)C[C@H]2c2ccccc2)cc1 (relative stereo) [Example 24, 4-methyl-N-{trans-1-[(1-methyl-1H-imidazol-4-yl)sulfonyl]-4-phenylpyrrolidin-3-yl}benzamide]
≤ 10	Cn1cnc(S(=O)(=O)N2C[C@@H](NC(=O)c3ccccc3)[C@H](c3ccccc3)C2)c1 (relative stereo) [Example 25, N-{trans-1-[(1-methyl-1H-imidazol-4-yl)sulfonyl]-4-phenylpyrrolidin-3-yl}benzamide]
≤ 1	Cn1cnc(S(=O)(=O)N2C[C@@H](NC(=O)c3ccc(Cl)cc3Cl)[C@H](c3ccccc3)C2)c1 (relative stereo) [Example 26, 2,4-dichloro-N-{trans-1-[(1-methyl-1H-imidazol-4-yl)sulfonyl]-4-phenylpyrrolidin-3-yl}benzamide]
≤ 1	Cn1cnc(S(=O)(=O)N2C[C@@H](NC(=O)c3ccc(F)cc3Cl)[C@H](c3ccccc3)C2)c1 (relative stereo) [Example 27, 2-chloro-4-fluoro-N-{trans-1-[(1-methyl-1H-imidazol-4-yl)sulfonyl]-4-phenylpyrrolidin-3-yl}benzamide]
≤ 1	Cn1cnc(S(=O)(=O)N2C[C@@H](NC(=O)c3cccc(Cl)c3Cl)[C@H](c3ccccc3)C2)c1 (relative stereo) [Example 31, 2,3-dichloro-N-{trans-1-[(1-methyl-1H-imidazol-4-yl)sulfonyl]-4-phenylpyrrolidin-3-yl}benzamide]
≤ 1	Cn1cnc(S(=O)(=O)N2C[C@@H](NC(=O)c3ccc(C(F)(F)F)cc3)[C@H](c3ccccc3)C2)c1 (relative stereo) [Example 37, N-{trans-1-[(1-methyl-1H-imidazol-4-yl)sulfonyl]-4-phenylpyrrolidin-3-yl}-4-(trifluoromethyl)benzamide]
